This assay concerns Gram-positive bacteria, Gram-negative bacteria, yeasts and fungi. Put plainly: Antimicrobial activity, whole panel. The assay is classed as cell-based. As to conditions: agar well diffusion. The protocol:
In our experiments, six Gram-positive bacteria, six Gram-negative bacteria, two yeasts, and six fungi were used. The hybrid molecule and its diamides were tested in vitro for their antimicrobial activity against human pathogenic bacteria and economically relevant phytopathogenic fungi. The inhibition zones of bacterial and fungal growth caused by the novel compounds are outlined in Table 3. The obtained results were compared to a known antispasmodic mebeverine and its precursors. […]
The antimicrobial activity of the samples was determined by the agar well diffusion method. […]
The inocula of the tested bacteria/yeasts was prepared by homogenization of a small amount of biomass in 5 mL of sterile 0.5% NaCl. […] The number of viable cells and fungal spores was determined using a bacterial counting chamber Thoma (Poly-Optik, GmbH, Bad Blankenburg, Germany). […] Next, the inoculated media were transferred in a quantity of 18 mL in sterile Petri plates (d = 90 mm) (Gosselin™, Hazebrouck, France) and allowed to harden. […]
The antimicrobial activity was determined by measuring the diameter of the inhibition zones around the wells on the 24th and 48th h of incubation. […]

With `Nc1ccccc1C(=O)NCCc1cccc(Cl)c1` [Compound 3, 2-amino-N-(3-chlorophenethyl)benzamide], the “antimicrobial activity (overall, in words)” value was “very good antimicrobial activity”.

For the origin of these results see PMC10530836, “Synthesis, Molecular Docking, and Biological Evaluation of Novel Anthranilic Acid Hybrid and Its Diamides as Antispasmodics” (International Journal of Molecular Sciences, 2023).
